Values after ≈ are worked out from the molar mass of the structure shown.

Data set [1] in a line: solubility in a neutral buffer used for nasal application. Particulars: well compatible neutral buffer as used for nasal application of protirelin.
The test system of a further data set is rat super-ovulation. The data set can be described thus: biological activity in rat super-ovulation. It counts as in vivo.
In the next data set the test system is Serum testosterone. The data set can be described thus: serum testosterone after Gn-RH antagonist (Table 2). Type of data set: in vivo. Particulars: untreated control 3.63 ± 0.59. The text has this: The Gn-RH antagonists according to the invention have an inhibitory effect on the formation of lutropin and follitropin and, as a result, also on the synthesis of testosterone and estrogen (see Table 2). They can be employed as high-dose Gn-RH […] in gonadotropin- and steroid-dependent diseases.

`CCNC(=O)[C@@H]1CCCN1C(=O)[C@H](CCCNC(=N)N)NC(=O)[C@H](CO[C@H]1O[C@@H](C)[C@@H](O)[C@@H](O)[C@@H]1O)NC(=O)[C@@H](Cc1c[nH]c2ccccc12)NC(=O)[C@H](Cc1ccc(O)cc1)NC(=O)[C@H](CO)NC(=O)[C@H](Cc1c[nH]c2ccccc12)NC(=O)[C@H](Cc1c[nH]cn1)NC(=O)[C@@H]1CCC(=O)N1` [Pgl-His-Trp-Ser-Tyr-D-Trp-Ser(β-L-Fuc)-Arg-Pro-NH-C2 H5]: in data set [1], the “Solubility in neutral nasal buffer” value was 2.5 mg/mL (≈ 1780 µM). For the same compound, the “ED20-50 Super-ovul.” value in the data set with rat super-ovulation is over 200 ng/rat.
With “Ac-D-Nal-p-Cl-D-Phe-D-Trp-Ser-Arg-D-Ser(α-L-Rha)-Leu Arg-Pro-Azagly-NH2”, the Serum testosterone in the data set on Serum testosterone was 2.27 ± 0.28 ng/mL.
Still for that read-out and setting: the result for “Ac-D-Nal-p-Cl-D-Phe-D-Trp-Ser-His-D-Ser(α-L-Rha)-Leu-Arg-Pro-Azagly-N H2” reads 1.34 ± 0.17 ng/mL; that for “Ac-D-Nal-p-Cl-D-Phe-D-Trp-Ser-Tyr-D-Ser(α-L-Rha)-Leu-Arg-Pro-Azagly-N H2”, 2.30 ± 0.47 ng/mL.
With “Pgl-His-Trp-Ser-Tyr-D-Ser(Ac-α-L-Rha)-Leu-Arg-Pro-NH-C2 H5”, the “Solubility in neutral nasal buffer” value in data set [1] was 50.0 mg/mL. For the same compound, the “ED20-50 Super-ovul.” value in the data set on rat super-ovulation amounted to 3 ng/rat.
For “Pgl-His-Trp-Ser-Tyr-D-Ser(Ac-β-L-Fuc)-Leu-Arg-Pro-NH-C2 H5” the same measures were 10.0 mg/mL and 6 ng/rat.
With “Pgl-His-Trp-Ser-Tyr-D-Ser(D-Ara)-Leu-Arg-Pro-NH-C2 H5”, in data set [1], the “Solubility in neutral nasal buffer” value was found to be 125 mg/mL. In the data set with rat super-ovulation, the “ED20-50 Super-ovul.” value is reported as under 24 ng/rat.
In the case of “Pgl-His-Trp-Ser-Tyr-D-Ser(D-Rib)-Leu-Arg-Pro-NH-C2 H5”, the “Solubility in neutral nasal buffer” value in data set [1] is 10 mg/mL. Further, in the data set on rat super-ovulation, the “ED20-50 Super-ovul.” value was under 6 ng/rat.
For “Pgl-His-Trp-Ser-Tyr-D-Ser(L-Ara)-Leu-Arg-Pro-NH-C2 H5” the same measures were 125 mg/mL and 12 ng/rat.
Consider “Pgl-His-Trp-Ser-Tyr-D-Ser(α-L-Rha)-Leu-Arg-Pro-NH-C2 H5”, for which the “Solubility in neutral nasal buffer” value in data set [1] was found to be 167.0 mg/mL. In addition, the “ED20-50 Super-ovul.” value with rat super-ovulation worked out at 3 ng/rat.
Turning to “Pgl-His-Trp-Ser-Tyr-D-Ser(β-D-Gal)-Leu-Arg-Pro-NH-C2 H5”, the “Solubility in neutral nasal buffer” value in data set [1] was 125 mg/mL. Besides, in the data set with rat super-ovulation, the “ED20-50 Super-ovul.” value stood at 12 ng/rat.
For “Pgl-His-Trp-Ser-Tyr-D-Ser(β-D-Glc-NAc)-Leu-Arg-Pro-NH-C2 H5”, in that order: 125 mg/mL and under 6 ng/rat.
With “Pgl-His-Trp-Ser-Tyr-D-Ser(β-D-Xyl)-Leu-Arg-Pro-NH-C2 H5”, the “Solubility in neutral nasal buffer” value in data set [1] came out at 50.0 mg/mL. Also, the “ED20-50 Super-ovul.” value in the data set on rat super-ovulation is recorded as 6 ng/rat.
For the compound “Pgl-His-Trp-Ser-Tyr-D-Ser(β-L-Xyl)-Leu-Arg-Pro-NH-C2 H5”, the “Solubility in neutral nasal buffer” value in data set [1] was found to be 10 mg/mL. The “ED20-50 Super-ovul.” value with rat super-ovulation stood at 6 ng/rat.
On to “Pgl-His-Trp-Ser-Tyr-D-Ser(β-Lac)-Leu-Arg-Pro-NH-C2 H5”, for which the “Solubility in neutral nasal buffer” value in data set [1] amounted to 167 mg/mL. Moreover, the “ED20-50 Super-ovul.” value in the data set with rat super-ovulation worked out at 12 ng/rat.
For “Pgl-His-Trp-Ser-Tyr-D-Trp-Ser(Ac2 -α-D-Man)-Arg-Pro-NH-C2 H5” the same measures were 10.0 mg/mL and over 24 ng/rat.
“Pgl-His-Trp-Ser-Tyr-D-Trp-Ser(Ac2 -β-L-Fuc)-Arg-Pro-NH-C2 H5”: the “Solubility in neutral nasal buffer” value in data set [1] amounted to 3.3 mg/mL. Moreover, the “ED20-50 Super-ovul.” value with rat super-ovulation is on record as 200 ng/rat.
For “Pgl-His-Trp-Ser-Tyr-D-Trp-Ser(Ac-α-D-Man)-Arg-Pro-NH-C2 H5”, in that order: 10.0 mg/mL and over 24 ng/rat.
As for “Pgl-His-Trp-Ser-Tyr-D-Trp-Ser(Ac-α-L-Rha)-Arg-Pro-NH-C2 H5”, the “Solubility in neutral nasal buffer” value in data set [1] was determined as 0.5 mg/mL. Also, the “ED20-50 Super-ovul.” value in the data set with rat super-ovulation is reported as over 24 ng/rat.
Take “Pgl-His-Trp-Ser-Tyr-D-Trp-Ser(Ac-β-D-Glc)-Arg-Pro-NH-C2 H5”: the “Solubility in neutral nasal buffer” value in data set [1] worked out at 2.5 mg/mL. In addition, the “ED20-50 Super-ovul.” value with rat super-ovulation is 5 ng/rat.
With “Pgl-His-Trp-Ser-Tyr-D-Trp-Ser(Ac-β-D-Xyl)-Arg-Pro-NH-C2 H5”, the “Solubility in neutral nasal buffer” value in data set [1] is 2.5 mg/mL. Also, the “ED20-50 Super-ovul.” value in the data set on rat super-ovulation is given as 6 ng/rat.
For the compound “Pgl-His-Trp-Ser-Tyr-D-Trp-Ser(Ac-β-L-Fuc)-Arg-Pro-NH-C2 H5”, the “Solubility in neutral nasal buffer” value in data set [1] turned out to be 10.0 mg/mL. Moreover, the “ED20-50 Super-ovul.” value in the data set on rat super-ovulation is 200 ng/rat.
For “Pgl-His-Trp-Ser-Tyr-D-Trp-Ser(D-Ara)-Arg-Pro-NH-C2 H5” the same measures were 5 mg/mL and 24 ng/rat.
As to “Pgl-His-Trp-Ser-Tyr-D-Trp-Ser(D-Rib)-Arg-Pro-NH-C2 H5”, in data set [1], the “Solubility in neutral nasal buffer” value is 25 mg/mL. For the same compound, the “ED20-50 Super-ovul.” value in the data set with rat super-ovulation was under 24 ng/rat.
Consider “Pgl-His-Trp-Ser-Tyr-D-Trp-Ser(L-Ara)-Arg-Pro-NH-C2 H5”, for which the “Solubility in neutral nasal buffer” value in data set [1] stood at 1.25 mg/mL. Also, the “ED20-50 Super-ovul.” value with rat super-ovulation is 48 ng/rat.
On to “Pgl-His-Trp-Ser-Tyr-D-Trp-Ser(α-L-Rha)-Arg-Pro-NH-C2 H5”, for which, in data set [1], the “Solubility in neutral nasal buffer” value turned out to be 1.4 mg/mL. The “ED20-50 Super-ovul.” value with rat super-ovulation is given as over 24 ng/rat.
Consider “Pgl-His-Trp-Ser-Tyr-D-Trp-Ser(β-D-Glc-NAc)-Arg-Pro-NH-C2 H5”, for which the “Solubility in neutral nasal buffer” value in data set [1] came to 125 mg/mL. Also, the “ED20-50 Super-ovul.” value with rat super-ovulation is recorded as over 24 ng/rat.
As to “Pgl-His-Trp-Ser-Tyr-D-Trp-Ser(β-D-Xyl)-Arg-Pro-NH-C2 H5”, the “Solubility in neutral nasal buffer” value in data set [1] came to 1.7 mg/mL. The “ED20-50 Super-ovul.” value with rat super-ovulation came to 6 ng/rat.
For “Pgl-His-Trp-Ser-Tyr-D-Trp-Ser(β-L-Xyl)-Arg-Pro-NH-C2 H5” the same measures were 1.1 mg/mL and 48 ng/rat.
For “Pgl-His-Trp-Ser-Tyr-D-Trp-Ser(β-Lac)-Arg-Pro-NH-C2 H5”, the “Solubility in neutral nasal buffer” value in data set [1] was 167 mg/mL. The “ED20-50 Super-ovul.” value in the data set on rat super-ovulation is on record as under 48 ng/rat.

The record behind these values is patent publication US5091367A, “Analogs of gonadoliberin with improved solubility, methods for their preparation, agents containing them and their use” (Hoechst Aktiengesellschaft, priority 1986, dated 1992).
